Results published in patent US20110091945A1, “METHODS OF INCREASING BIOMASS PRODUCTIVITY, LIPID INDUCTION, AND CONTROLLING METABOLITES IN ALGAE FOR PRODUCTION OF BIOFUELS USING BIOCHEMICAL STIMULANTS” (priority 2009, published 2011).

What was measured:
Chlorella sorokiniana [1] = assay: Biostimulant static culture batch study: chlorophyll content; assay type: cell-based, Chlorella sorokiniana (UTEX 2805); design: increase in chlorophyll over control / decrease in chlorophyll content versus control: concentration or dose not given beside the values; conditions: for increase in chlorophyll over control: day 10; for decrease in chlorophyll content versus control: day 5
Experimental: (§1) The pH value of culture medium was adjusted to 7.0±0.2 before inoculation and the alga was maintained in a temperature controlled growth chamber at 25±1° C. and 100±10 μmoles/m^2/s light intensity provided by cool white fluorescent (6500K) T-8 bulbs.
(§2) • Selection of the biochemical stimulants: Ten biochemical stimulants were selected, including indole-acetic acid, naphthalene-acetic acid, and phenyl-acetic acid The structures are shown in FIGS. 1 and 2. • Biochemical stimulants: Naphthalene acetic acid (NAA), indole-butryic acid […], gibberellic acid, and kelp extract were obtained from Super-Grow Plant Care, Montreal, Canada; Zeatin, and thidiazuron were obtained from bioWORLD, GeneLinx International, Inc, Ohio, USA; phenyl-acetic acid was supplied by Sigma-Aldrich, St. Louis, Mo., USA.
(§3) The experiment devised for the testing of biostimulants was a static culture batch study performed in triplicates for all treatments. Samples were collected and analyzed on day 0, 5 and 10. The growth medium was comprised of 90 ml of BG11 with appropriate concentrations of various biostimulants. Biochemical stimulants were filter sterilized through 0.22 μm Whatman syringe filter to avoid bacterial contamination. Each flask received 10 ml inoculum of exponentially growing Chlorella sorokiniana. After inoculation, flasks were incubated in the environmental growth chamber for 10 days in a temperature controlled growth chamber at 25±1° C. and 100±10 μmoles/m^21s light intensity provided by cool white fluorescent (6500K) T-8 bulbs.
(§4) • Analysis: Optical density was measured at 750 nm using a UV/Visible Spectrophotometer (Varian Cary 50, Varian Inc, Palo Alto, Calif., USA). Chlorophyll content was estimated following the method of Porra et al., ((1989) Biochem. Biophys. Acta 975: 384-394, incorporated herein in its entirety). The carbohydrate and protein content were estimated using the well-known methods of Dubois and Lowry respectively. Biomass was determined by filtering 25 mL of culture using pre-weighed Whatman GF/C glass fiber filters (1.2 μm). The material was washed with deionized water, dried at 60° C. for 12 h, and weighed. Photosynthetic efficiency and kinetics were determined by chlorophyll a fluorescence analysis using a Pulse Amplitude Modulation Fluorometer (Mini-PAM Chlorophyll a Fluorometer, Heinz Walz GmbH, Effeltrich, Germany).

Chlorella sorokiniana [2] = assay: Biostimulant static culture batch study: biomass productivity; assay type: cell-based, Chlorella sorokiniana (UTEX 2805); conditions: for effect on biomass / algal growth versus control, in words: day 5 and 10; for effect on biomass / algal growth versus control, in words / growth (biomass) increase over control: dosage of Table 1; for biomass (cell concentration / biomass productivity): 0.16 g/L with no biostimulants; for increase in biomass over control: dosage of Table 1 (NAA 5 ppm, PAA 30 ppm, IBA 10 ppm); for growth (biomass) increase over control: day not given
Experimental: as §1, §2, §3, §4

Chlorella sorokiniana [3] = assay: Biostimulant static culture batch study: total carbohydrate content; assay type: cell-based, Chlorella sorokiniana (UTEX 2805); conditions: for effect on carbohydrate synthesis versus control, in words: day 5; for increase in carbohydrate over control: day 10
Experimental: as §1, §2, §3, §4

Scenedesmus obliquus = conditions: 0.5% (v/v); cited from earlier work
[4] = system: soy callus and radish cotyledon; conditions: cited from earlier work
[5] = system: callus tissue culture from tobacco; conditions: cited from earlier work
Dunaliella tertiolecta = conditions: 136 mg L^−1; cited from earlier work

Structure (SMILES): C=C1C[C@]23C[C@@]1(O)CC[C@H]2[C@@]12C=C[C@H](O)[C@@](C)(C(=O)O1)[C@H]2[C@@H]3C(=O)O [GAA, gibberellic acid]
- effect on chlorophyll synthesis, in words (Chlorella sorokiniana [1]): inhibiting chlorophyll synthesis throughout the growth period
- increase in chlorophyll over control (Chlorella sorokiniana [1]): 30%
- effect on biomass / algal growth versus control, in words (Chlorella sorokiniana [2]): barely surpassed the control on day 5
- biomass (cell concentration / biomass productivity) (Chlorella sorokiniana [2]; day 10): ~0.28 g/L
- increase in biomass over control (Chlorella sorokiniana [2]; day 10, listed as GA): approximately 30%
- increase in biomass over control (Chlorella sorokiniana [2]; day 10, listed as GA3): 81%

Structure (SMILES): O=C(O)CCCc1c[nH]c2ccccc12 [IBA, indole-butryic acid]
- effect on chlorophyll synthesis, in words (Chlorella sorokiniana [1]): marginal increase by day 5
- increase in chlorophyll over control (Chlorella sorokiniana [1]): 93%
- increase in biomass over control (Chlorella sorokiniana [2]; day 5): 74%
- effect on biomass / algal growth versus control, in words (Chlorella sorokiniana [2]): stimulated biomass growth during the entire 0-10 day growth period
- biomass (cell concentration / biomass productivity) (Chlorella sorokiniana [2]; day 10): 0.28 g/L
- increase in biomass over control (Chlorella sorokiniana [2]; day 10): 76%
- effect on carbohydrate synthesis versus control, in words (Chlorella sorokiniana [3]): reduced carbohydrate contents on day 5

Structure (SMILES): CO [MeOH, methanol]
- decrease in chlorophyll content versus control (Chlorella sorokiniana [1]): 45%
- increase in the growth rate (Scenedesmus obliquus): > 300%

Structure (SMILES): O=C(O)Cc1ccccc1 [PAA, Phenyl acetic acid]
- decrease in chlorophyll content versus control (Chlorella sorokiniana [1]): 37%
- increase in biomass over control (Chlorella sorokiniana [2]; day 5): 95%
- increase in biomass over control (Chlorella sorokiniana [2]; day 10): 42%
- effect on carbohydrate synthesis versus control, in words (Chlorella sorokiniana [3]): reduced carbohydrate contents on day 5
- increase in carbohydrate over control (Chlorella sorokiniana [3]): 27%

Structure (SMILES): O=C(Nc1ccccc1)Nc1cnns1 [TDZ, thidiazuron]
- optimal dose that generated maximum growth in soy callus and expansion of radish cotyledon [4]: 1 µM
- increase in chlorophyll over control (Chlorella sorokiniana [1]): 30%
- increase in biomass over control (Chlorella sorokiniana [2]; day 10): approximately 30%
- growth (biomass) increase over control (Chlorella sorokiniana [2]): 33%

Structure (SMILES): C/C(=C\CNc1ncnc2[nH]cnc12)CO [Zeatin]
- growth (biomass) increase over control (Chlorella sorokiniana [2]): 27%
- activity relative to its cis isomer [5]: at least 50 times
- optimal dosage for maximum growth of callus tissue culture [5]: 10^−2 μM
- effect on carbohydrate synthesis versus control, in words (Chlorella sorokiniana [3]): reduced carbohydrates synthesis on day 5
- increase in carbohydrate over control (Chlorella sorokiniana [3]): 31%

Structure (SMILES): CCNc1nc(Cl)nc(NC(C)C)n1 [atrazine]
- increase in lipid content relative to the control (Dunaliella tertiolecta): 101%
- reduction of protein content relative to the control (Dunaliella tertiolecta): 57%

Structure (SMILES): [Cl][Fe]([Cl])[Cl] [ferric chloride]
- decrease in chlorophyll content versus control (Chlorella sorokiniana [1]): 65%
- effect on biomass / algal growth versus control, in words (Chlorella sorokiniana [2]): only marginal increases and decreases on day 10 and 5
